# Assay results published in ChEMBL document CHEMBL1201862, “PubChem BioAssay data set” (2004).
# Activity calls are given as the source filed them.
# Tests used:
# CHO = test: cytotoxicity in TLR9-MyD88 CHO cells, dose response, cytotoxicity control for TLR9-MyD88 binding inhibitor project, cell-based, luminescence (AID 588339); type: functional, hamster; settings: Cricetulus griseus;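 also: CHO cells stably coexpressing TLR9 and MyD88 fusions from primary screen; compound exposure lasted 48 hours before viability readout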
# Beta Lactamase = Beta Lactamase (Pseudomonas aeruginosa, UniProt Q932Y6); test: beta-lactamase reporter inhibitor potency, dose response, artefact control for TLR9-MyD88 binding inhibitor project, BLA reporter cells, FRET fluorescence (AID 588341); type: cell-based;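 also: cell based assay in CHO-K1 cells stably expressing beta-lactamase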
# Beta Lactamase, sequence (Q932Y6 whole entry): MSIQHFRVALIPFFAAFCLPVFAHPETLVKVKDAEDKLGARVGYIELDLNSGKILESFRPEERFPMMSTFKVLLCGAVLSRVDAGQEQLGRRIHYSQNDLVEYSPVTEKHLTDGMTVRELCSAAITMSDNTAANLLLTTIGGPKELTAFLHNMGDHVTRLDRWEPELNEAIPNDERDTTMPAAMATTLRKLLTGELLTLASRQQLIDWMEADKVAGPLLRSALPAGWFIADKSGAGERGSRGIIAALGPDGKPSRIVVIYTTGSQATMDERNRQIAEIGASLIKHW
# [1] = target: T1, High affinity choline transporter 1 (Homo sapiens, UniProt Q9GZV3); test: CHT activators, dose response, cell-based, 10-point CRC, membrane potential dye (AID 602376); type: functional
# T1 sequence (Q9GZV3 whole entry): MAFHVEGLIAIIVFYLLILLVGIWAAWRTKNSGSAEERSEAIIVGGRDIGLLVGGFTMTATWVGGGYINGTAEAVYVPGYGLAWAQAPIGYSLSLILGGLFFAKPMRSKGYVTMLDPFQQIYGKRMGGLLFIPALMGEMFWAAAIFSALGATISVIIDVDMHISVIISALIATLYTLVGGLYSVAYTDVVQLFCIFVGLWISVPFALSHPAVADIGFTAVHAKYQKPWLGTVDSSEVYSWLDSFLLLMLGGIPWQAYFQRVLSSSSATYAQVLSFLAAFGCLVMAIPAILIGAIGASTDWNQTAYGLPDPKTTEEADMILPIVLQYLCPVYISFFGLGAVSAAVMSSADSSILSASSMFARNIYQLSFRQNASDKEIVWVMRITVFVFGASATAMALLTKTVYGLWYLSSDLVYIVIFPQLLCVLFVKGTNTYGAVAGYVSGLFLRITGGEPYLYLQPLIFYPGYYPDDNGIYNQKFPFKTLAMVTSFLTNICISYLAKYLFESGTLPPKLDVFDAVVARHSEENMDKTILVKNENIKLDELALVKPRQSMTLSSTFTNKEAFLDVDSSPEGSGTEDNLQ
# Troponin, cardiac muscle = Troponin, cardiac muscle (Homo sapiens, UniProt P19429+P45379+P63316); test: Fluorescence-based biochemical high throughput dose response assay for activators of the calcium sensitivity of cardiac Regulated Thin Filaments (RTF). [Related pubchem assays (depositor defined):AID493008, AID493018, AID504382, AID504383]; type: protein-complex assay
# [2] = target: T2, Endoribonuclease toxin MazF (Escherichia coli K-12, UniProt P0AE70); test: fluorescent RNA oligo signal without MazF, dose response, counter-screen for MazEF activator project, biochemical, fluorescence, single-stranded RNase substrate (AID 588502); type: functional
# T2 sequence (P0AE70 whole entry): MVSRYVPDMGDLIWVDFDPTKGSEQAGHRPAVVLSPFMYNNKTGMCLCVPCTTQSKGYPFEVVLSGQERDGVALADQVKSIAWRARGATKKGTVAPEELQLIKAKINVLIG
# [3] = target: T2, Endoribonuclease toxin MazF; test: SAR analysis of small molecule activators of the MazEF TA System via a fluorescence-based single-stranded RNase assay counterscreen. [Related pubchem assays (depositor defined):AID504720, AID504743]; type: functional
# [4] = target: T2, Endoribonuclease toxin MazF; test: MazF endoribonuclease activators, SAR follow-up, biochemical, fluorescence, single-stranded RNA substrate (AID 588603); type: functional
# [5] = target: T2, Endoribonuclease toxin MazF; test: MazF toxin RNase activators, dose response, biochemical, fluorescence, single-stranded RNA substrate, uHTS hits (AID 588481); type: functional
# MEF = test: SAR analysis of small molecule cytotoxicity of MazEF TA System activators in embryonic fibroblast (MEF) cells. [Related pubchem assays (depositor defined):AID504720, AID504743]; type: functional; settings: Mus musculus
# Caspase-3 = target: T3, Caspase-3 (Homo sapiens, UniProt P42574); test: SAR Analysis of small molecule inhibitors of Sentrin-specific proteases (SENPs) using a Caspase-3 Selectivity assay. [Related pubchem assays (depositor defined):AID2540, AID2599, AID434973, AID489001]; type: functional
# T3 sequence (P42574 whole entry): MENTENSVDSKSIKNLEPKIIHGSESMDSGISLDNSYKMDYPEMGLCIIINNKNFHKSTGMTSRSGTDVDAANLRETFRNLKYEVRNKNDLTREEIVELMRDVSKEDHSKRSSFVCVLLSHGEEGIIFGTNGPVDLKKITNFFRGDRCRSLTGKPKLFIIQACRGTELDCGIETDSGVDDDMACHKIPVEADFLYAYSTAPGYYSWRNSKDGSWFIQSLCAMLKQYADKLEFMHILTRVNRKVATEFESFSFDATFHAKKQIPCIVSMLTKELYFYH
# [6] = target: T4, Sentrin-specific protease 7 (Homo sapiens, UniProt Q9BQF6); test: SENP7 protease inhibitors, SAR follow-up, biochemical, luminescence (AID 504497); type: functional
# T4 sequence (Q9BQF6 whole entry): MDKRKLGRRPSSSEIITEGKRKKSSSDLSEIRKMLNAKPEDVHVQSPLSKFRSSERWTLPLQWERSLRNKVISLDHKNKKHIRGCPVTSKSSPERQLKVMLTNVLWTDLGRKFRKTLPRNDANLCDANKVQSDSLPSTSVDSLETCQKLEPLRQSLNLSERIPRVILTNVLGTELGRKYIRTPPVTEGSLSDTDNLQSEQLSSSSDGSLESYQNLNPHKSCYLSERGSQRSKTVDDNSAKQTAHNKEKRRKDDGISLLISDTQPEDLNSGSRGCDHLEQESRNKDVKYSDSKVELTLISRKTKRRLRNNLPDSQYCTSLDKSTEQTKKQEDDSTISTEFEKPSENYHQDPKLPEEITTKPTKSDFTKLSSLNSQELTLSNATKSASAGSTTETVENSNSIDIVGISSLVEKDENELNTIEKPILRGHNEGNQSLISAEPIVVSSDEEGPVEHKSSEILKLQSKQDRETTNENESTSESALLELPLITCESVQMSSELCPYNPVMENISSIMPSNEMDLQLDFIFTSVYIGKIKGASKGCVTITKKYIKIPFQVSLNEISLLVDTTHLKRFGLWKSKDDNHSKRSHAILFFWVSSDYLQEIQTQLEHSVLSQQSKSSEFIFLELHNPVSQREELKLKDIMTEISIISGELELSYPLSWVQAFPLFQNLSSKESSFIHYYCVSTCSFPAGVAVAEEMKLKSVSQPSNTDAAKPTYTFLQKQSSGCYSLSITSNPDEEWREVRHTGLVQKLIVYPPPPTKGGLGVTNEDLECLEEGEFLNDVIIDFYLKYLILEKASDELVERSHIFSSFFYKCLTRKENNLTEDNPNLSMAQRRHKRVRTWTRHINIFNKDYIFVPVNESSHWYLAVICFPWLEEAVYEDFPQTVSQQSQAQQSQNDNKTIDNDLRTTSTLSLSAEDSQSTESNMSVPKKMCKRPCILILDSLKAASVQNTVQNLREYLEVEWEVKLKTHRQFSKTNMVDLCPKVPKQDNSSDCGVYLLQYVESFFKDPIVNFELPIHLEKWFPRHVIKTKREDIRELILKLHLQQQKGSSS
# [7] = target: T5, Sentrin-specific protease 6 (Homo sapiens, UniProt Q9GZR1); test: SAR Analysis of small molecule inhibitors of Sentrin-specific protease 6 (SENP6) using a Luminescent assay. [Related pubchem assays (depositor defined):AID2582, AID2599]; type: functional
# T5 sequence (Q9GZR1 whole entry): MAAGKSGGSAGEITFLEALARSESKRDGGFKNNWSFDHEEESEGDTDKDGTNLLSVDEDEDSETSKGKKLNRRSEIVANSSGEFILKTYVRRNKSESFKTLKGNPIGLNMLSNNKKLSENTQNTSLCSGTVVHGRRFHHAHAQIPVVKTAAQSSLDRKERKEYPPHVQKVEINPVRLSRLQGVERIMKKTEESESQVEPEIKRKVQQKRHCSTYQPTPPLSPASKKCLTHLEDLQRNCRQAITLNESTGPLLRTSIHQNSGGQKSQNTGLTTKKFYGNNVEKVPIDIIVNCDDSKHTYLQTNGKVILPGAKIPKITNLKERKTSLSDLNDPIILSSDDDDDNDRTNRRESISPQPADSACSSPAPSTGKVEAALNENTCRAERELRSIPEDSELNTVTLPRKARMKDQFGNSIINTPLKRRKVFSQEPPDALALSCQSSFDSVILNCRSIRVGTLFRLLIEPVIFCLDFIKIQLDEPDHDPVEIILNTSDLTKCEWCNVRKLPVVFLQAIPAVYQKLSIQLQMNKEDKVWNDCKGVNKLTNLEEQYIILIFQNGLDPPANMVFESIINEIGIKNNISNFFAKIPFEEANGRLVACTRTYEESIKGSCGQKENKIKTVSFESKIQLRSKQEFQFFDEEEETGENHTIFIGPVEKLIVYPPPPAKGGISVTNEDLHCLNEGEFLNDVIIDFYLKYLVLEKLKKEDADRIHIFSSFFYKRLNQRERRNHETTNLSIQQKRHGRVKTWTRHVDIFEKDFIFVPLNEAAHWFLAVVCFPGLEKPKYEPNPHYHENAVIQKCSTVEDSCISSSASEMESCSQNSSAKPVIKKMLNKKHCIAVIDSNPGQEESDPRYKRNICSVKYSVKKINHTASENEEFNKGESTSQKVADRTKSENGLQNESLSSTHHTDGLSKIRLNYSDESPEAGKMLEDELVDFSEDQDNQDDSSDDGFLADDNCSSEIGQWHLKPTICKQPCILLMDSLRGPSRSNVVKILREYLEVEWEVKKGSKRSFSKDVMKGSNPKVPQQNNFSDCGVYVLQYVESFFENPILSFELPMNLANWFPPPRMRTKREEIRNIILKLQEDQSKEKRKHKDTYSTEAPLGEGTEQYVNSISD
# [8] = target: T6, Sentrin-specific protease 8 (Homo sapiens, UniProt Q96LD8); test: SENP8 protease inhibitors, SAR follow-up, biochemical, luminescence (AID 504501); type: functional
# T6 sequence (Q96LD8 whole entry): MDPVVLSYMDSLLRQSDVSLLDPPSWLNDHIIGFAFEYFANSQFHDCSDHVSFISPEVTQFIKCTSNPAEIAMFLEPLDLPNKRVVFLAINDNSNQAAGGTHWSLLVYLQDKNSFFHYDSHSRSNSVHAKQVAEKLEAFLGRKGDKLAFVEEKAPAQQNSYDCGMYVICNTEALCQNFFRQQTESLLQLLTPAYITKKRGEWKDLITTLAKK
# [9] = target: T7, Orexin/Hypocretin receptor type 1 (Homo sapiens, UniProt O43613); test: (§1) Fluorescence-based cell-based high throughput dose response assay for antagonists of the orexin 1 receptor (OX1R; HCRTR1). [Related pubchem assays (depositor defined):AID434989, AID435008, AID463079, AID485270, AID492963, AID492964, AID492965, AID493232, AID504717, AID504718]; type: functional
# T7 sequence (O43613 whole entry): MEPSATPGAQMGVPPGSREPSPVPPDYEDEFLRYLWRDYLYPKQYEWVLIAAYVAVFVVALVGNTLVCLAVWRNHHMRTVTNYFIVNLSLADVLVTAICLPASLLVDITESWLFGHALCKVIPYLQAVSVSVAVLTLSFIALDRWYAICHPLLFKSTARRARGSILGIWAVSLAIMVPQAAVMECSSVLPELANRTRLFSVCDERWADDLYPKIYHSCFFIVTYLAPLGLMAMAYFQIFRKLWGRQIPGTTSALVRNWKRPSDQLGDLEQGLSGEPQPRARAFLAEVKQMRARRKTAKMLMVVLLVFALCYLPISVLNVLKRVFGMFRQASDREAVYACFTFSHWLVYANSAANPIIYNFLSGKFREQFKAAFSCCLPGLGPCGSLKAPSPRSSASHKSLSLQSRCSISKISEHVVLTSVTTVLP
# CHO-K1 = test: (§2) Counterscreen for antagonists of the orexin 1 receptor (OX1R; HCRTR1): Homogeneous time resolved fluorescence (HTRF)-based cell-based dose response assay to identify antagonists of the parental CHO-K1 cell line. [Related pubchem assays (depositor defined):AID434989, AID435008, AID463079, AID485270, AID492963, AID492964, AID492965, AID493232, AID504699, AID504701]; type: functional; settings: Cricetulus griseus
# Orexin receptor type 2 [10] = target: T8, Orexin receptor type 2 (Homo sapiens, UniProt O43614); test: Counterscreen assay for antagonists of the orexin 1 receptor (OX1R; HCRTR1): Fluorescence-based cell-based dose response assay for antagonists of the orexin 2 receptor (OX2R; HCRTR2), run by assay provider.; type: functional
# T8 sequence (O43614 whole entry): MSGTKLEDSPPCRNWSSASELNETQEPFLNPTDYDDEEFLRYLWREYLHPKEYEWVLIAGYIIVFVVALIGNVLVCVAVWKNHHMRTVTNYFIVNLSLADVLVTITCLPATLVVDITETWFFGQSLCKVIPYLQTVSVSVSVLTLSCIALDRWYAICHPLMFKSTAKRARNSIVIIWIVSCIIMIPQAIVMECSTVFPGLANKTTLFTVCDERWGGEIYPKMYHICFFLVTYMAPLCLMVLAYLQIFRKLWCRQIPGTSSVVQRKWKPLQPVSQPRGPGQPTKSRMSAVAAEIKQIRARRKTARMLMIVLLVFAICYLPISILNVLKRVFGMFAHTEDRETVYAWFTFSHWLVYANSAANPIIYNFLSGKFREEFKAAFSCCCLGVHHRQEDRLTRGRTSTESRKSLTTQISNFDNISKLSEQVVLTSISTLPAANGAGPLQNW
# [11] = target: T7, Orexin/Hypocretin receptor type 1; test: as §1, with “Homogeneous Time Resolved Fluorescence (HTRF)-based” for “Fluorescence-based”; type: functional
# [12] = as §2, with “Fluorescence-based” for “Homogeneous time resolved fluorescence (HTRF)-based”, “cell-based high throughput” for “cell-based”, “CHO” for “CHO-K1”; type: functional
# Orexin receptor type 2 [13] = target: T8, Orexin receptor type 2; test: Counterscreen assay for antagonists of the orexin 1 receptor (OX1R; HCRTR1): Homogeneous Time Resolved Fluorescence (HTRF)-based cell-based dose response assay for antagonists of the orexin 2 receptor (OX2R; HCRTR2), run by assay provider.; type: functional
# [14] = target: DNA dC->dU-editing enzyme APOBEC-3G (Homo sapiens, UniProt Q9HC16); test: APOBEC3G deaminase inhibitors, SAR follow-up, biochemical, fluorescence, single-stranded DNA substrate (AID 602136); type: functional; settings: read-out: IC50_Mean
# DNA dC->dU-editing enzyme APOBEC-3G, sequence (Q9HC16 whole entry): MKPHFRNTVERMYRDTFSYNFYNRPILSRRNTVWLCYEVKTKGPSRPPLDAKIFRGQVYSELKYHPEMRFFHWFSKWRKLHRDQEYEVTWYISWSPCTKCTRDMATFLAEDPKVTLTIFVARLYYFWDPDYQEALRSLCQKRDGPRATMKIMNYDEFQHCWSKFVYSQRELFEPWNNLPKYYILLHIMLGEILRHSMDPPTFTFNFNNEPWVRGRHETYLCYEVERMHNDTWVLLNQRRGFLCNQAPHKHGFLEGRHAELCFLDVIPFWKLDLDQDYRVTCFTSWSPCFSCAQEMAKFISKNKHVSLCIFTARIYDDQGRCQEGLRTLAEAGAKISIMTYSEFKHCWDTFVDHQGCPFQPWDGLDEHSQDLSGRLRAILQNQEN
# [15] = target: DNA dC->dU-editing enzyme APOBEC-3A (Homo sapiens, UniProt P31941); test: SAR analysis of small molecule inhibitors of APOBEC3A DNA Deaminase via a fluorescence-based single-stranded DNA deaminase assay.; type: functional; settings: read-out: IC50_Mean
# DNA dC->dU-editing enzyme APOBEC-3A, sequence (P31941 whole entry): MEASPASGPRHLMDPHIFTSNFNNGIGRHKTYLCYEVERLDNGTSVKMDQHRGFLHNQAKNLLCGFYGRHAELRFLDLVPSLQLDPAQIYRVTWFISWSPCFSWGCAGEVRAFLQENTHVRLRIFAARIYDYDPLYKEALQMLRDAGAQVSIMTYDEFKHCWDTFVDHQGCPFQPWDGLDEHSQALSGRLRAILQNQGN
# [16] = THP-1 cell cytotoxicity, cytotoxicity control, set 6 (AID 602433); type: functional; settings: Mycobacterium tuberculosis
# [17] = Vero cell cytotoxicity, cytotoxicity control for M. tuberculosis inhibitor project, purified and synthesized samples, set 8 (AID 602431); type: functional; settings: Mycobacterium tuberculosis
smiles,measurement,setting,value
CCN(CC)c1ccc(/C=C/C(=O)C2C(=O)C=C(C)OC2=O)cc1 (stereo not drawn),IC50,CHO,> 49.7 µM (inactive)
same,IC50,Beta Lactamase,4.88 µM (active)
CC(C)CN1CCN(Cc2cccn2-c2ccc(Cl)cn2)CC1CCO (stereo not drawn),EC50,[1],8.24 µM (active)
same,EC50,"Troponin, cardiac muscle",> 71.5 µM (inactive)
N=c1c2c(ncn1CCCO)Oc1cc(O)ccc1C2c1ccccc1 (stereo not drawn),EC50,[2],> 99 µM (inactive)
same,EC50,[3],78.8 µM (inactive)
same,EC50,[4],6.2 µM (active)
same,EC50,[5],6.82 µM (active)
same,CC50,MEF,> 99 µM (inactive)
Oc1ccc(Cl)cc1/C=N/Nc1cc(N2CCCC2)nc(N2CCCC2)n1,IC50,Caspase-3,> 99 µM (inactive)
same,IC50,[6],> 99 µM (inactive)
same,IC50,[7],> 99 µM (inactive)
same,IC50,[8],> 99 µM (inactive)
CCOc1ccccc1N1CCN(C(=O)c2ccc(S(=O)(=O)Nc3ccccc3)cc2)CC1,IC50,[9],15.1 µM (inactive)
same,IC50,CHO-K1,> 66.2 µM (inactive)
same,IC50,Orexin receptor type 2 [10],42.5 µM (inactive)
same,IC50,[11],1.12 µM (active)
same,IC50,[12],25.6 µM (inactive)
same,IC50,Orexin receptor type 2 [13],> 50 µM (inactive)
O=C(CCN1CCSC1=O)Nc1cc(Cl)ccc1N1CCOCC1,IC50,[14],> 99 µM (inactive)
same,IC50,[15],> 99 µM (inactive)
CC1CCCN(c2c(NCc3ccc(C(=O)N4CC=C(c5ccccc5)CC4)cc3)c(=O)c2=O)C1 (stereo not drawn),CC50,[16],17.4 µM (active)
same,CC50,[17],67.2 µM (active)
